# Laboratory results published in patent publication US20120115852A1, “HETEROCYCLIC COMPOUNDS AS AUTOTAXIN INHIBITORS” (Merck Patent Gesellschaft Mit Beschrankter Haftung, priority 2009, published 2012).
# Target: T1, recombinant autotaxin (Homo sapiens, UniProt Q13822)
# T1 construct: made in house; host or cells: Hi5 insect cells (baculovirus)
# Assay: Autotaxin test (enzyme test), Amplex Red fluorescence with LPC substrate
# Format: biochemical
# Details: autotaxin inhibition (enzyme test); for remaining activity at 10 µM: 10 μM compound, read-out: % Control at 10 μM
# Method in brief: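 Purified recombinant autotaxin (baculovirus Hi5-expressed) pre-incubated with compound 30 min at 22° C, then LPC (final 75 μM) added and reacted 90 min at 37° C in Tris pH 8 buffer with CaCl2. Choline released was coupled via alkaline phosphatase, choline oxidase and peroxidase to Amplex Red; resorufin fluorescence read in kinetic mode (ex 485/em 612 nm).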
Compound,remaining activity at 10 µM,IC50
CN(C)c1ccc(C(=O)N2CCN3C(=O)c4cc(-c5ccccc5F)ccc4NC(=O)[C@H]3C2)cc1 [Compound B24],83%,–
"CC(C)(C)CC(=O)N1CCN2C(=O)c3cc(-c4ccccc4F)ccc3NC(=O)[C@H]2C1 [Compound A7, (R)-2-(3,3-Dimethylbutyryl)-7-(2-fluorophenyl)-1,3,4,11a-tetrahydro-2H,10H-2,4a,10-triaza-dibenzo[a,d]cycloheptene-5,11-dione]",–,> 1000 nM
"O=C1Nc2ccc(-c3ccc(Cl)cc3F)cc2C(=O)N2CCN(C(=O)Cc3ccccn3)CC12 (stereo not drawn) [Compound A30, 7-(4-Chloro-2-fluorophenyl)-2-(2-pyridin-2-ylacetyl)-1,3,4,11a-tetrahydro-2H,10H-2,4a,10-triaza-dibenzo[a,d]cycloheptene-5,11-dione]",23%,> 1000 nM
O=C1Nc2ccc(-c3cccc(C(F)(F)F)c3)cc2C(=O)N2CCN(C(=O)c3ccccc3)C[C@H]12 [Compound B11],85%,–
CN(C)CCN1C(=O)[C@H]2CN(C(=O)CC(C)(C)C)CCN2C(=O)c2cc(-c3ccc(Cl)cc3F)ccc21 [Compound A151],16%,> 1000 nM
"CC(=O)N1CCN2C(=O)c3cc(-c4ccc(Cl)cc4F)ccc3NC(=O)[C@H]2C1 [Compound A116, (R)-2-Acetyl-7-(4-chloro-2-fluorophenyl)-1,3,4,11a-tetrahydro-2H,10H-2,4a,10-triaza-dibenzo[a,d]cycloheptene-5,11-dione]",71%,> 1000 nM
CN(C)CCN1C(=O)[C@H]2CN(C(=O)[C@@H]3CCCN3C3CCNCC3)CCN2C(=O)c2cc(-c3ccc(Cl)cc3F)ccc21 [Compound A156],7%,100 to 1000 nM
"CC(C)(C)CC(=O)N1CCN2C(=O)c3cc(-c4ccc(Cl)cc4F)ccc3NC(=O)[C@@H]2C1 [Compound A125, (S)-7-(4-Chloro-2-fluorophenyl)-2-(3,3-dimethyl-butyryl)-1,3,4,11a-tetrahydro-2H,10H-2,4a,10-triazadibenzo[a,d]cycloheptene-5,11-dione]",25%,> 1000 nM
O=C1Nc2ccc(-c3ccc4c(c3)OCO4)cc2C(=O)N2CCN(C(=O)c3cccnc3)C[C@H]12 [Compound B12],84%,–
"CC(C)(C)CC(=O)N1CCN2C(=O)c3cc(-c4cc(F)c(F)cc4F)ccc3NC(=O)C2C1 (stereo not drawn) [Compound A92, 2-(3,3-Dimethylbutyryl)-7-(2,4,5-trifluorophenyl)-1,3,4,11a-tetrahydro-2H,10H-2,4a,10-triaza-dibenzo[a,d]cycloheptene-5,11-dione]",1%,> 1000 nM
"CC(C)(C(=O)N1CCN2C(=O)c3cc(-c4ccc(Cl)cc4F)ccc3NC(=O)C2C1)c1ccccc1 (stereo not drawn) [Compound A58, 7-(4-Chloro-2-fluorophenyl)-2-(2-methyl-2-phenyl-propionyl)-1,3,4,11a-tetrahydro-2H,10H-2,4a,10-triazadibenzo[a,d]cycloheptene-5,11-dione]",-27%,> 1000 nM
"CN(C)CCN1C(=O)C2CN(C(=O)CC(C)(C)C)CCN2C(=O)c2cc(-c3ccc(Cl)cc3)ccc21 (stereo not drawn) [Compound A134, 7-(4-Chlorophenyl)-10-(2-dimethylaminoethyl)-2-(3,3-dimethylbutyryl)-1,3,4,11a-tetrahydro-2H,10H-2,4a,10-triazadibenzo[a,d]cycloheptene-5,11-dione]",-19%,> 1000 nM
O=C(O)CCCC(=O)N1CCN2C(=O)c3cc(-c4ccco4)ccc3NC(=O)[C@H]2C1 [Compound B7],70%,–
CC(C)CS(=O)(=O)N1CCN2C(=O)c3cc(-c4ccc(Cl)cc4F)ccc3NC(=O)[C@H]2C1 [Compound A173],1%,100 to 1000 nM
CC(C)(C)CC(=O)N1CCN2C(=O)c3cc(Br)ccc3NC(=O)C2C1 (stereo not drawn) [Compound A142],85%,–
O=C1Nc2ccc(-c3ccccc3F)cc2C(=O)N2CCN(C(=O)[C@@H](O)c3ccccc3)C[C@H]12 [Compound B3],47%,–
"CC(C)(C)CC(=O)N1CCN2C(=O)c3cc(-c4ccc(C(F)(F)F)cc4F)ccc3NC(=O)C2C1 (stereo not drawn) [Compound A84, 2-(3,3-Dimethylbutyryl)-7-(2-fluoro-4-trifluoromethyl-phenyl)-1,3,4,11a-tetrahydro-2H,10H-2,4a,10-triazadibenzo[a,d]cycloheptene-5,11-dione]",29%,–
"CC(C)(C)CC(=O)N1CCN2Cc3cc(-c4ccccc4F)ccc3NCC2C1 (stereo not drawn) [Compound 25, 1-[7-(2-fluorophenyl)-3,4,5,10,11,11a-hexahydro-1H-2,4-a,10-triazadibenzo[a,d]cyclohepten-2-yl]-3,3-dimethylbutan-1-one]",53%,> 1000 nM
CC(C)(C)CC(=O)N1CCN2C(=O)c3cc(-c4ccc(Cl)cc4F)ccc3N(CC(N)=O)C(=O)C2C1 (stereo not drawn) [Compound A145],2%,100 to 1000 nM
"CC(C)(C)[C@H](NC1CCNCC1)C(=O)N1CCN2C(=O)c3cc(-c4ccc(Cl)cc4F)ccc3NC(=O)[C@H]2C1 [Compound 48, (R)-7-(4-Chloro-2-fluorophenyl)-2-[(S)-3,3-dimethyl-2-(piperidin-4-ylamino)butyryl]-1,3,4,11a-tetrahydro-2H,10H-2,4a,10-triazadibenzo[a,d]cycloheptene-5,11-dione]",2%,100 to 1000 nM
"O=C1Nc2ccc(-c3ccc(Cl)cc3F)cc2C(=O)N2CCN(C(=O)[C@H]3NCC[C@@H]3O)CC12 (stereo partly drawn) [Compound A69, 7-(4-Chloro-2-fluorophenyl)-2-((2S,3S)-3-hydroxy-pyrrolidine-2-carbonyl)-1,3,4,11a-tetrahydro-2H,10H-2,4a,10-triazadibenzo[a,d]cycloheptene-5,11-dione]",58%,–

# Other lines, results leading:
remaining activity at 10 µM,IC50,Compound
54%,> 1000 nM,"CCCc1nn(C)cc1C(=O)N1CCN2C(=O)c3cc(-c4ccc(Cl)cc4)ccc3NC(=O)C2C1 (stereo not drawn) [Compound A23, 7-(4-Chlorophenyl)-2-(1-methyl-3-propyl-1H-pyrazole-4-carbonyl)-1,3,4,11a-tetrahydro-2H,10H-2,4a,10-triazadibenzo[a,d]cycloheptene-5,11-dione]"
67%,> 1000 nM,"O=C1Nc2ccc(-c3ccc(Cl)cc3)cc2C(=O)N2CCN(C(=O)CC3CCCCC3)CC12 (stereo not drawn) [Compound A24, 7-(4-Chlorophenyl)-2-(2-cyclohexylacetyl)-1,3,4,11a-tetrahydro-2H,10H-2,4a,10-triaza-dibenzo[a,d]cycloheptene-5,11-dione]"
-1%,> 1000 nM,"CC(C)(C)CC(=O)N1CCN2C(=O)c3cc(-c4ccc(F)cc4)ccc3NC(=O)C2C1 (stereo not drawn) [Compound A130, 2-(3,3-Dimethylbutyryl)-7-(4-fluorophenyl)-1,3,4,11a-tetrahydro-2H,10H-2,4a,10-triaza-dibenzo[a,d]cycloheptene-5,11-dione]"
12%,> 1000 nM,"COC(C(=O)N1CCN2C(=O)c3cc(-c4ccc(Cl)cc4)ccc3NC(=O)C2C1)c1ccccc1 (stereo not drawn) [Compound A42, 7-(4-Chlorophenyl)-2-(2-methoxy-2-phenylacetyl)-1,3,4,11a-tetrahydro-2H,10H-2,4a,10-triaza-dibenzo[a,d]cycloheptene-5,11-dione]"
70%,> 1000 nM,"CC(C)(C)CC(=O)N1CCN2C(=O)c3cc(-c4ccc(C(F)(F)F)cc4)ccc3NC(=O)C2C1 (stereo not drawn) [Compound A18, 2-(3,3-Dimethylbutyryl)-7-(4-trifluoromethylphenyl)-1,3,4,11a-tetrahydro-2H,10H-2,4a,10-triaza-dibenzo[a,d]cycloheptene-5,11-dione]"
51%,> 1000 nM,"O=C1Nc2ccc(-c3ccc(Cl)cc3)cc2C(=O)N2CCN(C(=O)C3CCCN3C(=O)c3ccncc3)CC12 (stereo not drawn) [Compound A110, 7-(4-Chlorophenyl)-2-[1-(pyridine-4-carbonyl)-pyrrolidine-2-carbonyl]-1,3,4,11a-tetrahydro-2H,10H-2,4a,10-triazadibenzo[a,d]cycloheptene-5,11-dione]"
–,> 1000 nM,"O=C1Nc2ccc(-c3ccc(Cl)cc3)cc2C(=O)N2CCN(C(=O)[C@@H]3CSCN3)C[C@H]12 [Compound A5, (R)-7-(4-Chlorophenyl)-2-((R)-thiazolidine-4-carbonyl)-1,3,4,11a-tetrahydro-2H,10H-2,4a,10-triazadibenzo[a,d]cycloheptene-5,11-dione]"
76%,–,"O=C1Nc2ccc(-c3ccc(Cl)cc3)cc2C(=O)N2CCN(C(=O)Cc3ccccc3)CC12 (stereo not drawn) [Compound A32, 7-(4-Chlorophenyl)-2-phenylacetyl-1,3,4,11a-tetrahydro-2H,10H-2,4a,10-triazadibenzo[a,d]-cycloheptene-5,11-dione]"
4%,> 1000 nM,"O=C1Nc2ccc(-c3ccc(Cl)cc3F)cc2C(=O)N2CCN(C(=O)CC3CC3)CC12 (stereo not drawn) [Compound A28, 7-(4-Chloro-2-fluorophenyl)-2-(2-cyclopropylacetyl)-1,3,4,11a-tetrahydro-2H,10H-2,4a,10-triaza-dibenzo[a,d]cycloheptene-5,11-dione]"
11%,> 1000 nM,"O=C(C(=O)N1CCN2C(=O)c3cc(-c4ccc(Cl)cc4)ccc3NC(=O)C2C1)c1ccccc1 (stereo not drawn) [Compound A35, 7-(4-Chlorophenyl)-2-(2-oxo-2-phenylacetyl)-1,3,4,11a-tetrahydro-2H,10H-2,4a,10-triaza-dibenzo[a,d]cycloheptene-5,11-dione]"
28%,> 1000 nM,"O=C1Nc2ccc(-c3ccc(Cl)cc3)cc2C(=O)N2CCN(C(=O)[C@@H]3CCCN3)CC12 (stereo partly drawn) [Compound A114, 7-(4-Chlorophenyl)-2-((S)-pyrrolidine-2-carbonyl)-1,3,4,11a-tetrahydro-2H,10H-2,4a,10-triaza-dibenzo[a,d]cycloheptene-5,11-dione]"
71%,–,COc1ccc(-c2ccc3c(c2)C(=O)N2CCN(C(=O)[C@@H]4CSCN4)C[C@@H]2C(=O)N3)cc1 [Compound B22]
